Results: the NIST ThermoML archive (doi:10.1016/j.jct.2005.03.016)

Experiment: xn = mol fraction of the nth substance listed
Details: Liquid, Vibrating tube method, x1 = 1

CCO [ethanol] + CC1CCCCC1
mass density [kg/m3]
Details | 100 kPa | 5000 kPa | 10000 kPa | 15000 kPa | 20000 kPa | 25000 kPa | 30000 kPa | 35000 kPa | 40000 kPa | 45000 kPa
283.15 K | 798 | 802 | 805.9 | 809.5 | 813 | 816.4 | 819.7 | 822.8 | 825.9 | 828.8
293.15 K | 789.5 | 793.7 | 797.8 | 801.6 | 805.3 | 808.9 | 812.3 | 815.6 | 818.7 | 821.8
303.15 K | 780.9 | 785.3 | 789.6 | 793.7 | 797.5 | 801.3 | 804.8 | 808.2 | 811.5 | 814.7
313.15 K | 772.1 | 776.8 | 781.3 | 785.6 | 789.6 | 793.5 | 797.2 | 800.8 | 804.2 | 807.6
323.15 K | 763.3 | 768.3 | 773 | 777.6 | 781.8 | 785.9 | 789.7 | 793.5 | 797.1 | 800.5
333.15 K | 754 | 759.3 | 764.3 | 769.1 | 773.6 | 777.8 | 781.9 | 785.8 | 789.5 | 793.1
343.15 K | 744.5 | 750.1 | 755.5 | 760.5 | 765.3 | 769.8 | 774 | 778.1 | 782 | 785.7
353.15 K | – | 740.6 | 746.4 | 751.7 | 756.7 | 761.5 | 766 | 770.2 | 774.3 | 778.2
